Assay results: ChEMBL document CHEMBL5223073, “Andrographolide suppresses cisplatin-induced endothelial hyperpermeability through activation of PI3K/Akt and eNOS -derived nitric oxide” (Bioorg Med Chem, 2020)
The source made the active and inactive calls. The calls are words filed in the database; no cut-off is given here.

What was measured:
[1] = test system: HUVEC; test: Cytotoxicity against HUVEC cells assessed as reduction in cell viability at <=30 uM measured after 24 hrs by MTT assay; format: toxicity, cell-based; details: human
[2] = molecular target: T1, Nitric oxide synthase 3 (Homo sapiens) (UniProt P29474); test: Activation of eNOS activity in cisplatin-treated HUVEC cells assessed as increase in eNOS phosphorylation at Ser1177 residue at 30 uM measured after 5 to 60 mins by Western blot analysis; format: cell-based; details: filed as activator, time 5-60 min
T1 sequence (whole entry): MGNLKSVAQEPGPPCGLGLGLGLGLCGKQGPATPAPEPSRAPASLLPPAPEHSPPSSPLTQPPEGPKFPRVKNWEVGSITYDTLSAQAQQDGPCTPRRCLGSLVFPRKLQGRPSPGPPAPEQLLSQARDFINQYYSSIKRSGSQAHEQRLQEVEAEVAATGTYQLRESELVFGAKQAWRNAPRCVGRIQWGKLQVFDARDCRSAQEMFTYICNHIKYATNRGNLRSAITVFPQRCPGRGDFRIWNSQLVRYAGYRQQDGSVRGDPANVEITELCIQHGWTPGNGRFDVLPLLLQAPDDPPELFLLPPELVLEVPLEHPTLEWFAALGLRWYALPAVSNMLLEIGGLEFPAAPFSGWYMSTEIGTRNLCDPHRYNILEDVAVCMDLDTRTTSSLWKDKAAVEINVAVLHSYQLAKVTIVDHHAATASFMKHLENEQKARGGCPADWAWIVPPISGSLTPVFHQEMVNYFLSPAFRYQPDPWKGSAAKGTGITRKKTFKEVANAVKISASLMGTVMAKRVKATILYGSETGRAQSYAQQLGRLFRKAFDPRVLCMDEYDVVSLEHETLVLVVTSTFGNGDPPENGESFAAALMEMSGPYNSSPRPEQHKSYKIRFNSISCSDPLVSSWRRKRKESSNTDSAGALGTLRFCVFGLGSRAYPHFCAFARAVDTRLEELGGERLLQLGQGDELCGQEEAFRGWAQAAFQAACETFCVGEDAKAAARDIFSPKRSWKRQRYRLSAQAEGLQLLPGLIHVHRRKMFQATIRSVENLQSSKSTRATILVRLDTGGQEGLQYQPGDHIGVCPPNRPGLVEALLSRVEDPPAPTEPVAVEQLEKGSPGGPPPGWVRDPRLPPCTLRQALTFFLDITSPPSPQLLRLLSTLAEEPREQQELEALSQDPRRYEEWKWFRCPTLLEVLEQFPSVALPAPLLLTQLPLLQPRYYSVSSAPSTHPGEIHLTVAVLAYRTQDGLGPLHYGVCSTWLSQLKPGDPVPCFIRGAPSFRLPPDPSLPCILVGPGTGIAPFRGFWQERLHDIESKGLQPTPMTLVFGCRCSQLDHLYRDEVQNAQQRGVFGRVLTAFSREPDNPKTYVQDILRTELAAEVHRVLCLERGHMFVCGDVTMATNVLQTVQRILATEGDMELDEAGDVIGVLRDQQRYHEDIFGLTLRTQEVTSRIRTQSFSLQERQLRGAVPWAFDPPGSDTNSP

[3] = test system: HUVEC; test: Effect on total eNOS protein level in cisplatin-treated HUVEC cells at 30 uM measured after 5 to 240 mins by Western blot analysis; format: functional, cell-based; details: Homo sapiens, time 5-240 min
[4] = test system: HUVEC; test: Activation of PI3K in cisplatin-treated HUVEC cells assessed as increase PIP3 formation pretreated for 30 mins followed by cisplatin addition by immunoprecipitation analysis; format: cell-based; details: Homo sapiens, filed as activator, dose 10-30 µM
[5] = test system: HUVEC; test: Activation of AKT in cisplatin-treated HUVEC cells assessed as increase in AKT phosphorylation at 30 uM measured after 5 to 240 mins by Western blot analysis; format: cell-based; details: Homo sapiens, filed as activator, time 5-240 min
[6] = test system: HUVEC; test: Activation of AKT in cisplatin-treated HUVEC cells assessed as increase in AKT phosphorylation at 30 uM pretreated with PI3K inhibitor, wortmannin followed by compound addition and measured after 240 mins by Western blot analysis; format: cell-based; details: Homo sapiens
[7] = molecular target: T1, Nitric oxide synthase 3 (Homo sapiens); test: Activation of eNOS activity in cisplatin-treated HUVEC cells assessed as increase in intracellular cGMP level at 30 uM preincubated with eNOS inhibitor, N(G)-nitro-L-arginine methyl ester followed by compound addition and further incubated for 15 mins by radioimmunoassay; format: cell-based
[8] = molecular target: T2, NF-kappa-B inhibitor alpha (Homo sapiens) (UniProt P25963); test: Inhibition of cisplatin-induced phosphorylation of IkappaBalpha at Ser32/36 residue in HUVEC cells at 30 uM preincubated with PI3K inhibitor, wortmannin followed by compound addition and further incubated for 1 hr by Western blot analysis; format: cell-based
T2 sequence (whole entry): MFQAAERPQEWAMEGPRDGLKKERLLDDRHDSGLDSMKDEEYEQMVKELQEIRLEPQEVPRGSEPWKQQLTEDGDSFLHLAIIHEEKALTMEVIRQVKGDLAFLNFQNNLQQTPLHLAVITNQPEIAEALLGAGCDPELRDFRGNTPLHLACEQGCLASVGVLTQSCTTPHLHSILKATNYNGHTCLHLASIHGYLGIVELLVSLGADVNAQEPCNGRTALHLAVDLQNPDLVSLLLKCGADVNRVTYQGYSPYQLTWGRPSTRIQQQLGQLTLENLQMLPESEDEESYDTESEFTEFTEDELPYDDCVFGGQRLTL

[9] = test system: HUVEC; test: Upregulation of cytosolic p65 level in cisplatin-treated HUVEC cells at 30 uM preincubated with PI3K inhibitor, wortmannin followed by compound addition and further incubated for 1 hr by Western blot analysis; format: functional, cell-based; details: Homo sapiens
[10] = test system: HUVEC; test: Downregulation of cisplatin-induced ICAM1 protein expression in HUVEC cells at 30 uM preincubated with PI3K inhibitor, wortmannin followed by compound addition and further incubated for 1 hr by Western blot analysis; format: functional, cell-based; details: Homo sapiens
[11] = test system: HUVEC; test: Inhibition of cisplatin-induced PKCalpha translocation in HUVEC cells assessed as increase in PKCalpha accumulation in cytosol at 30 uM incubated for 15 mins in presence of cisplatin by Western blot analysis; format: functional, subcellular; details: Homo sapiens
[12] = test system: HUVEC; test: Inhibition of cisplatin-induced PKCalpha translocation in HUVEC cells assessed as reduction in membrane PKCalpha activity at 30 uM incubated for 15 mins in presence of cisplatin by Western blot analysis; format: functional, cell-based; details: Homo sapiens
[13] = test system: HUVEC; test: Downregulation of cisplatin-induced PKCalpha translocation in HUVEC cells at 30 uM incubated for 15 mins in presence of cisplatin and eNOS inhibitor, N(G)-nitro-L-arginine methyl ester by Western blot analysis; format: functional, cell-based; details: Homo sapiens
[14] = test system: HUVEC; test: Improvement in cisplatin-induced endothelial monolayer integrity in HUVEC cells assessed as increase in transendothelial electric resistance at 30 uM preincubated with compound in presence of PI3K inhibitor, wortmannin followed by cisplatin stimulation and measured after 45 mins; format: functional, cell-based; details: Homo sapiens
[15] = test system: HUVEC; test: Improvement in cisplatin-induced endothelial monolayer integrity in HUVEC cells assessed as reduction in transmembrane movement of albumin at 30 uM preincubated with compound followed by cisplatin stimulation and measured after 2 hrs; format: functional, cell-based; details: Homo sapiens
[16] = test system: HUVEC; test: Improvement in cisplatin-induced endothelial monolayer integrity in HUVEC cells assessed as reduction in transmembrane movement of albumin at 30 uM preincubated with compound in presence of eNOS inhibitor, N(G)-nitro-L-arginine methyl ester followed by cisplatin stimulation and measured after 2 hrs; format: functional, cell-based; details: Homo sapiens

- Activity [2]: Active
- Activity [7]: inactive
- inhibition [8]: inactive
SMILES: C=C1CC[C@@H]2[C@](C)(CO)[C@H](O)CC[C@@]2(C)[C@@H]1C/C=C1/C(=O)OC[C@H]1O [ANDROGRAPHOLIDE]
- Activity [1]: Non-Toxic
- Activity [3]: inactive
- Activity [4]: Dose-Dependent Effect
- Activity [5]: Active
- Activity [6]: inactive
- Activity [9]: inactive
- Activity [10]: inactive
- inhibition [11]: Active
- inhibition [12]: Active
- Activity [13]: inactive
- Activity [14]: inactive
- Activity [15]: Active
- Activity [16]: inactive
